These results are taken from ChEMBL document CHEMBL6182903, “Synthetic approaches and clinical application of KRAS inhibitors for cancer therapy” (Eur J Med Chem, 2025).

Where only a bound is given, the exact number is not on record here.

In assay [1] the target is von Hippel-Lindau disease tumor suppressor/GTPase KRas (Homo sapiens, UniProt P01116+P40337, G12C). The assay is described as follows: PROTAC activity at VHL/KRAS G12C mutant in human MIA PaCa-2 cells assessed as induction of KRAS G12C degradation. It is filed as cell-based.
Assay [2] in a line: PROTAC activity at CRBN/KRAS G12C mutant in human MIA PaCa-2 cells assessed as induction of KRAS G12C degradation. It is filed as cell-based.
Assay [3] concerns the target T1, GTPase KRas (Homo sapiens, UniProt P01116, G12S). The assay is described as follows: Inhibition of KRAS G12S mutant in human A549 cells assessed as reduction in ERK phosphorylation. In kind it is cell-based.
Assay [4] concerns the target T1, GTPase KRas. The assay is described as follows: Binding affinity to human recombinant GDP-bound KRAS G12S mutant (1 to 169 residues) assessed as inhibition constant.
A further assay relates to BaF3. Description: Cytotoxicity against mouse BaF3 cells harboring KRAS G12R mutant assessed as reduction in cells growth incubated for 72 hrs by Celltiter-Glo luminescence-based assay. It is filed as functional, cell-based. As to conditions: BaF3, 72 h. (In ATP-based viability assays light output follows the ATP content of the culture.)

By DC50 is commonly meant the concentration giving 50% degradation. For `C=C(F)C(=O)N1CCN(c2nc(OC[C@@H]3CCCN3CCCOCCC(=O)N[C@H](C(=O)N3C[C@H](O)C[C@H]3C(=O)NCc3ccc(-c4scnc4C)cc3)C(C)(C)C)nc3c2CCN(c2cccc4cccc(Cl)c24)C3)C[C@@H]1CC#N`, the DC50 in assay [1] came out at 0.12 µM.

For the compound `C=CC(=O)N1CCN(c2nc(NCCCN3CCN(CCCNc4cccc5c4C(=O)N(C4CCC(=O)NC4=O)C5=O)CC3)nc3c(F)c(-c4cc(O)cc5ccccc45)c(Cl)cc23)CC1` (stereo not given), the DC50 in assay [2] was 3.2 µM.

The IC50 is the concentration at which inhibition is half-maximal. As a reminder, the Ki is the equilibrium dissociation constant of an inhibitor or competing ligand from its target. As to `O=C1O[C@H]2CN(c3nc(OCC45CCCN4CCC5)nc4c3CCN(c3cccc5cccc(Cl)c35)C4)CC[C@@H]12`, the IC50 on GTPase KRas [3] was 2.4 µM. The Ki at GTPase KRas [4] is 26 µM.

In the case of `CC(=O)CC(=O)N1[C@@H]2CC[C@H]1CN(c1nc(OCC34CCCN3CCC4)nc3c(F)c(-c4cccc5cccc(Cl)c45)ncc13)C2`, the IC50 with BaF3 was under 100 µM.
